These results are taken from patent publication US11834393B2, “Organic compounds having taste-modifying properties” (GIVAUDAN SA, priority 2013, dated 2023).

Test [1] is described as follows: Mango flavoured beverage, evaluation by a panel of experienced tasters. The following applies: 1 ppm dosed to mango drink (mango flavour 0.05% w/w, mango juice 0.18% w/w, sugar 8% w/w, citric acid 0.1% w/w). The procedure: A mango-flavoured beverage was prepared using a standard mango flavour (0.05% w/w), mango juice (0.18% w/w), sugar (8% w/w) and citric acid (0.1% w/w).

Test [2] in a line: Beef bouillon, evaluation by a panel of experienced tasters. The following applies: 1 ppm dosed to bouillon prepared from bouillon cubes. The procedure:
A beef bouillon was prepared using bouillon cubes obtained from a local supermarket.

`CCCCCCCCCCCCCCCCCCNC(=O)C1(N)CC1` [Ex 5, 1-amino-N-octadecylcyclopropanecarboxamide]: the “taste of the mango drink compared with the reference drink (panel)” value in test [1] is “more sweet, more ripe mango, more full and more long-lasting”.
With `CCCCCCCCCCCCCCCCNC(=O)CCCN` [Ex 7, N-hexadecyl 4-aminobutyramide], the “taste of the beef bouillon compared with the reference (panel)” value in test [2] is “more salty and more umami and was more longlasting”.
`CCCCCCCCCCCCCCCCCCNC(=O)C1CCCN1` (stereo not shown) [Ex 3, N-octadecylpyrrolidine-2-carboxamide]: the “taste of the mango drink compared with the reference drink (panel)” value in test [1] was “more over-ripe, more sweet, and more full and had an increased mouthfeel”.
Take `CCCCCCCCCCCCCCCCCCNC(=O)C(N)CCSC` (stereo not shown) [Ex 1, 2-amino-4-(methylthio)-N-octadecylbutanamide]: the “taste of the beef bouillon compared with the reference (panel)” value in test [2] was “more salty and more full”.
